Test results reported in patent US20240165196A1, “Beta-Lactamase Inhibitors” (VIB VZW, priority 2021, published 2024).

What was measured:
E. coli strain UZ_TEM104 = assay type: cell-based
NCI-H441 = assay type: cell-based, human
HeLa = assay type: cell-based, human
Text: (§1) FIGS. 4A-4K. […] IV—Intravenous, IP—Intraperitoneal, SC—Subcutaneously. The data shown is from a single experiment with 4 animals per group. […] (ns—non significant, #—P>0.05, *—P≤0.05, ***—P≤0.01, ****—P≤0.001). (FIG. 4G) FICI plot as in FIG. 2, for the E. coli strains indicated and the combination of penicillin and the TEM3.2 peptide. […] (FIG. 4J) Same as FIG. 4H for peptide BGAL. (FIG. 4K) Same as FIG. 4H for peptide P33.
(§2) Given this broad activity on clinical isolates, we wondered if the TEM3.2 peptide could be used to re-sensitize bacteria to ampicillin treatment in vivo, in a mouse Urinary Tract Infection (UTI) model.

E. coli UZ_TEM104 = experiment: FACS analysis with Propidium Iodide and pFTAA; assay type: cell-based
Description: (§3) FIGS. 3A-3P. […] Three replicates are shown for each condition. […] A single representative image is shown. […] Three replicates are shown for each condition. (FIG. 3E) [Left] […] [Middle] […] [Right] […] A single representative image is shown. […] A single representative image is shown. […] A single representative image is shown. […] A single representative blot is shown. […] 106 cells were analysed for the plot.
First, we tested the assay using a mixture of live and heat inactivated (FIG. 3L) or just live bacteria (FIG. 3M), showing that heat inactivated, but not live bacteria are stained with PI, and neither are stained with pFTAA.
Bacterial cells in the cleaned suspensions were stained with both propidium iodide (PI) and FITC peptide to evaluate the killing rate and peptide uptake in a two-dimensional analysis. […] Treated bacteria washed with PBS buffer two times. One microliter of PI (Invitrogen) was added to the bacteria and incubated for 5 min. The bacteria were used by FACS tubes for 40000 events. To correlate the activity of the peptides with cell death, the fluorescence intensity was measured in two channels using the Gallios™ Flow Cytometer (Beckman Coulter, USA), PI: excitation 536 nm and emission 617 nm, FITC: excitation 490 nm and emission 525 nm. Heated bacteria at 90° C. for 10 min were used as PI-positive control.

[1] = tested on: E. coli strain lacking TEM (ATCC 25922); experiment: Structured Illumination Microscopy of peptide-treated bacteria lacking TEM; assay type: cell-based; details: same treatment as UZ_TEM104
Description: as §3
Moreover, we confirmed the presence of the protein in the correct band using mass spectrometry proteomics. We repeated this with a strain expressing SHV-154, blotting with a polyclonal rabbit antibody raised against the recombinant SHV enzyme described above (FIG. 3K).
The bacterial cultures were washed with PBS and the number of the bacteria were adjusted to 10^8-10^9 cells/mL. […] Then, cells were treated with LCO dyes (pFTAA; Amytacker™ 680 or Amytacker™ 545: final concentration of 0.5 μM; Ebba Biotech, Sweden) for at least 90 min. The absorption, emission and excitation spectra for each dye were measured based on the standard Ebbabiotec advice (ebbabiotech.com).
Bacteria were fixed by adding 2.5% paraformaldehyde and 0.04% glutaraldehyde (final concentrations) to the culture media, followed by incubation at room temperature for 15 mins and 30 mins on ice. Bacteria were then washed in PBS and resuspended in GTE buffer (50 mM glucose, 25 mM Tris, and 10 mM EDTA, pH 8.0). […]

human erythrocytes = assay type: cell-based
Text: as §1, §2
EDTA was used as the anticoagulant. […] Plate centrifuged for 10 min at 3000×g. […] Erythrocytes in 1% Triton and maximum used concentration of buffer were used as the control of 100% and 0% hemolysis, respectively.

[2] = mouse, in vivo, iv, 5 mg/kg
Description: Vehicle alone (0.9% NaCl) was also administered (IV).

[3] = tested on: E. coli strains carrying NDMs; experiment: checkerboard assay (FICI), TEM3.2 and penicillin; assay type: cell-based; details: strains containing NDMs; significant spread
Text: as §1
As we wondered about the generality of our peptide design approach, we set out to design a peptide to inactivate a structurally unrelated beta-lactamase. […] This enzyme was first isolated from a patient in 200850, by 2010 could be detected in clinical isolates throughout the UK and India^51 and by 2015 was detected in over 70 countries worldwide^52.
For the analysis of the synergy between the peptides with other antibiotics, a checkerboard assay was performed. […] FICI is calculated as the sum of the individual fractional inhibitory concentrations (FICs) for each drug (where MIC A and MIC B denote the MIC of each drug alone, and MIC AA+B and MIC BA+B denote the concentrations of A and B in the drug combination). […]

[4] = tested on: primary mouse cortical neurons; assay type: cell-based
HEK293 = assay type: cell-based, human

| Substance | reduction of the MIC of penicillin G (E. coli strain UZ_TEM104; additive at fixed 50 μg/mL) [fold] | MIC penicillin (E. coli strain UZ_TEM104; in presence of additive at 50 μg/mL) [µg/mL] | cytotoxicity (Cell Titer Blue) (NCI-H441) | cytotoxicity (Cell Titer Blue) (HeLa) | cells with non-lethal aggregation (shift only in pFTAA channel) (E. coli UZ_TEM104; 50 μg/mL TEM3.2 in PBS, 4 h) [%] | change in PI (cell death) and pFTAA (aggregation) channels (E. coli UZ_TEM104; 400 μg/mL penicillin G and 50 μg/mL TEM3.2, 4 h) | inclusion body formation [1] | hemolysis of human erythrocytes (human erythrocytes) | hematologic analysis [2] | synergy with penicillin (FICI) [3] | cytotoxicity (Cell Titer Blue) [4] | cytotoxicity (Cell Titer Blue) (HEK293) |
| --- | --- | --- | --- | --- | --- | --- | --- | --- | --- | --- | --- | --- |
| Ac-RLTAFLHNRRPRLTAFLHNRR-NH2 [TEM3.0] | 8 | 200 | – | – | – | – | – | – | – | – | – | – |
| Ac-RLTAFLHNRRPRLTAFLRQRR-NH2 [TEM3.2] | – | – | not cytotoxic | not cytotoxic | > 99 | shift in both channels | only very limited inclusion body formation | not hemolytic | no major discrepancies to vehicle treated controls | little or no synergy | not cytotoxic | not cytotoxic |
